Results taken from patent US5670530A, “Anti-cancer composition comprising rhodacyanine compound and cyclodextrin” (Fuji Photo Film Co., Ltd., priority 1995, dated 1997).

Columns and labels:
[1] = Solubility of Compounds 2, 4 and 5 in aqueous solution containing various cyclodextrin compounds (Example 4); type: physicochemical; conditions: for Solubility in water with cyclodextrin compounds: β-CD, HP-β-CD, γ-CD
Method: (§1) Solutions of HP-β-CD in demineralized water having concentrations varying from 0 w/v % to 45 w/v % were prepared as described in EXAMPLE 1. […] The results obtained are shown graphically in FIGS. 1 and 2.
Aqueous solutions of β-CD, HP-β-CD and γ-CD were prepared and solubility of Compounds 2, 4 and 5 in each of the aqueous solutions having the concentration varing as shown in TABLE 2 was determined as described in EXAMPLE 2. For the purpose of comparison, solubility of Compounds 2, 4 and 5 in water was also determined.

[2] = Solubility of rhodacyanine compounds in human serum at 37° C.
human melanoma LOX = assay: Survival of nude mice implanted with human melanoma LOX (Example 9); type: in vivo, human cells in nude mice
[3] = Precipitation of Compound 1 in rat blood with HP-β-CD (Example 5); type: physicochemical; conditions: HP-β-CD concentration increases
[4] = Solubility of Compound 1 in rat serum with HP-β-CD (Example 2); type: physicochemical; conditions: HP-β-CD 0 to 45 w/v %, 30 minutes, 25° C.
Method: as §1

[5] = Solubility of Compound 1 in aqueous solutions of β-CD, HP-β-CD and γ-CD (Example 3); type: physicochemical
[6] = tested on: human colon carcinoma cells (CX-1); assay: Tumor inhibition in nude mice implanted with human colon carcinoma cells CX-1 (Example 8); type: in vivo, human cells in nude mouse (Swiss nu/nu); conditions: for Tumor Inhibition: day 1, 2, 4, 6, 7, 8, 9
Method: 2,500,000 human colon carcinoma cells (CX-1) were injected subcutaneously into each nude mouse (Swiss nu/nu) obtained from Taconic Farm and the mice were randomly allocated into a control group (five mice) and treatment groups (five mice per group).
The anti-cancer compositions containing HP-β-CD were prepared using the following method. HP-β-CD (45 g) was mixed with 100 ml of sterilized, double distilled water and stirred for four hours. Each of the compounds to be tested (20 mg) was mixed with 10 ml of HP-β-CD solution and sonicated for 60 minutes in the dark. This solution was then diluted in 5% glucose to yield a final compound concentration of 0.5 mg/ml, and further sonicated for 60 minutes in the dark to assure that the compound was completely dissolved. The anti-cancer compositions not containing HP-β-CD were also prepared using the same method except that 5% glucose solution was used instead of the HP-β-CD solution.
The control group received an equivalent volume of 5% glucose solution.
When the growth of tumors in the control group reached the exponential phase and the size of the tumor was palpable (usually 20 to 30 days after tumor implantation), the experiments were terminated. Tumors in each mouse were excised and weighed using an analytical balance. Total tumor weight in each group from five mice was calculated. Per cent tumor inhibition between the treated group and the control group was then calculated for each group.

[7] = Solubility of Compound 1 in fetal calf serum with HP-β-CD (Example 2); type: physicochemical; conditions: HP-β-CD 0 to 45 w/v %, 30 minutes, 25° C.
Method: as §1

[8] = Solubility of Compound 1 in aqueous solution containing various solubilizers (Example 1); type: physicochemical; conditions: for solubility at 24 h: 25° C.
Method: Solubilizers, β-CD, polyethylene glycol 400 and Pluronic F60, were added to demineralized water respectively to prepare solutions having concentrations shown in TABLE 1. […] The test tubes were fixed in thermostatic bath controlled at 25° C. and allowed to stand for 24 hours.

In the case of `CCN1C(=CC=c2sc(=CC3=[N+](CC)CCS3)n(CC)c2=O)C=Cc2ccccc21` [Compound 2], the Solubility in water [1] was 0.03 mM/dl, the “Solubility in aqueous solution of CD” value ([1]; β-CD 0.80 mM/dl) was 0.55 mM/dl and the “Solubility in water with cyclodextrin compounds” value [1] was “improved by all of the cyclodextrin compounds used”.

Molecule `CCn1c(=Cc2sc3ccccc3[n+]2CC)sc(=CC=C2SC=C(C)N2C)c1=O` has a solubility [2] of under 1000 µg/mL.

Work on `CCn1c(=Cc2oc3c4ccccc4ccc3[n+]2CC)sc(=C2Sc3ccccc3N2C)c1=O` yielded a solubility [2] of under 100 µg/mL.

For `CCn1c(=C2CCC[n+]3c2sc2ccccc23)sc(=C2Sc3ccccc3N2C)c1=O` [Compound 4], the “Solubility in aqueous solution of CD” value ([1]; HP-β-CD 4.2 mM/dl) was 0.03 mM/dl, the Solubility in water [1] was 0.001 mM/dl and the “Solubility in water with cyclodextrin compounds” value [1] was “improved by all of the cyclodextrin compounds used”.

Molecule `CCn1c(=Cc2oc3ccccc3[n+]2CC)sc(=C2Sc3ccccc3N2C)c1=O` [drawing 17] has a solubility [2] of under 100 µg/mL.

In the case of `CCn1c(=Cc2sc3c4ccccc4ccc3[n+]2CC)sc(=C2Sc3ccc4ccccc4c3N2C)c1=O` [Compound 5], the Solubility in water [1] was ~ 0 mM/dl, the “Solubility in water with cyclodextrin compounds” value [1] was “improved by all of the cyclodextrin compounds used” and the “Solubility in aqueous solution of CD” value ([1]; γ-CD 1.0 mM/dl) was 0.02 mM/dl.

Work on `CCn1c(=CC2=[N+](CC)CCS2)sc(=C2Sc3ccccc3N2C)c1=O` yielded a solubility [2] of over 1000 µg/mL.

With `CN1C(=c2sc(=Cc3oc4ccccc4[n+]3C)n(C)c2=O)Sc2ccccc21` the solubility [2] was 300 µg/mL.

For `CCN1C(=CC=c2sc(=Cc3cc[n+](CC)c4ccccc34)n(CC)c2=O)C=Cc2ccccc21` [drawing 20], the solubility [2] was under 100 µg/mL.

With `CCN1C(=CC=c2sc(=Cc3cc[n+](CC)c4ccccc34)n(CC)c2=O)C=Cc2ccccc21` [Compound 8] the T/C (human melanoma LOX; 20 mg/kg i.p., HP-β-CD added, day 1, 2, 3, 4, 8, 9) was 227% and the T/C (human melanoma LOX; 20 mg/kg i.p., HP-β-CD non-added, day 1, 2, 3, 4, 8, 9) was 183%.

Molecule `CCn1c(=Cc2oc3ccccc3[n+]2CC)sc(=C2Sc3ccccc3N2C)c1=O` [Compound 7] has a T/C (human melanoma LOX; 10 mg/kg i.p., HP-β-CD added, day 1, 4, 8, 12, 16, 21, 25) of 200% and a T/C (human melanoma LOX; 10 mg/kg i.p., HP-β-CD non-added, day 1, 4, 8, 12, 16, 21, 25) of 175%.

Molecule `CCN1C(=CC=c2sc(=CC3=[N+](CC)CCS3)n(CC)c2=O)C=Cc2ccccc21` [drawing 16] has a solubility [2] of under 100 µg/mL.

For `CCn1c(=CC2=[N+](CC)CCS2)sc(=C2SC3=C(CCCC3)N2C)c1=O`, the solubility [2] was over 1000 µg/mL.

With `CCn1c(=Cc2sc3c4ccccc4ccc3[n+]2CC)sc(=CC=C2Sc3ccc4ccccc4c3N2C)c1=O` [Compound 1] the “precipitation of Compound 1 in blood” value [3] was “effectively inhibited”, the “Compound 1 dissolved in serum (FIGS. 1 and 2)” value [4] was “much dissolved in the serums, depending on the increase in HP-β-CD concentration” and the “Solubility in water with cyclodextrins (FIG. 3)” value ([5]; β-CD, HP-β-CD and γ-CD) was “all cyclodextrin compounds used improve solubility of Compound 1 in water”. For the same molecule, the “Solubility in water with γ-CD (FIG. 3)” value ([5]; γ-CD) was “γ-CD greatly improves the solubility”, the “Tumor Inhibition” value ([6]; 2 mg/kg i.p., HP-β-CD added) was 48.8% and the “Tumor Inhibition” value ([6]; 2 mg/kg i.p., HP-β-CD non-added) was 29.1%. For the same molecule, the “Tumor Inhibition” value ([6]; 4 mg/kg i.p., HP-β-CD added) was 30.2%, the “Tumor Inhibition” value ([6]; 4 mg/kg i.p., HP-β-CD non-added) was 20.9% and the “tumor inhibition, with vs without HP-β-CD” value ([6]; solution containing HP-β-CD vs no HP-β-CD) was “higher tumor inhibition than that containing no HP-β-CD”. For the same molecule, the “Compound 1 dissolved in serum (FIGS. 1 and 2)” value [7] was “much dissolved in the serums, depending on the increase in HP-β-CD concentration”, the solubility at 24 h ([8]; water only) was 1860 µg/mL and the solubility at 24 h ([8]; water, peg 400 50%, organic solvent or mixture, Polyethylene glycol 400, 50 w/v %) was 870 µg/mL. For the same molecule, the solubility at 24 h ([8]; water, Pluronic F60 0.02 w/v %) was 3230 µg/mL, the solubility at 24 h ([8]; water, Pluronic F60 0.2 w/v %) was 3130 µg/mL and the solubility at 24 h ([8]; water, β-CD 1.5 w/v %) was 8170 µg/mL. For the same molecule, the “increase of solubility in water by β-CD” value ([8]; β-CD vs compound itself in water) was 4.4 times.

Work on `CCn1c(=Cc2sc3c4ccccc4ccc3[n+]2CC)sc(=CC=C2Sc3ccc4ccccc4c3N2C)c1=O` [drawing 21] yielded a solubility [2] of under 100 µg/mL.

`CCn1c(=Cc2scc(C)[n+]2CC)sc(=C2Sc3ccccc3N2C)c1=O` gave a solubility [2] of over 1000 µg/mL.
